pIC50: −log10 of the molar value. Where two headings read alike, the source gives them in different places.
Tests used:
[1] = molecular target: T1, ARAF YDYD (Homo sapiens, UniProt P10398, Y301D/Y302D); assay: PanQinase kinase panel: ARAF YDYD; type: biochemical; conditions: read-out: INHIBITORY EFFECT @ 1 uM: ARAF YDYD
T1 construct: purchased Reaction Biology Europe GmbH
T1 sequence (P10398 1-606 Y301D/Y302D): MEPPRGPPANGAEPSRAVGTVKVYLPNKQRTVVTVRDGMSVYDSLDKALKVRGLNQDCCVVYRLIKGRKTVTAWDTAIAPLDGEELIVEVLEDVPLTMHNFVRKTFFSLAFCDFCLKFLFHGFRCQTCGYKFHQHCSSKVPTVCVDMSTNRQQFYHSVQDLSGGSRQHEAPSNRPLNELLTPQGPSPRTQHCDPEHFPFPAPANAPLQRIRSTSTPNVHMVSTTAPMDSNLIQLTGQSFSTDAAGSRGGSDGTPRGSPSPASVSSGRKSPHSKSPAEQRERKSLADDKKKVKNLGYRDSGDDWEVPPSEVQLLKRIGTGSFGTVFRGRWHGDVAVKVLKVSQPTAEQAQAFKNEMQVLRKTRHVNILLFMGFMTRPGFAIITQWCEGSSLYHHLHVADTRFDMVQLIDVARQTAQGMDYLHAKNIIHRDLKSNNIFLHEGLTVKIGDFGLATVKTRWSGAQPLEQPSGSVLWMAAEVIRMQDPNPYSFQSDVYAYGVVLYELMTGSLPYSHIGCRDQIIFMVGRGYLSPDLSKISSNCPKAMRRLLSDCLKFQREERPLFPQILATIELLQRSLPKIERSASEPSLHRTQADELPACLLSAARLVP
Procedure: (§1) Screening procedures were performed in accordance with the company's on-line protocol [accessed on-line Mar.
(§2) For each kinase, the median value of the cpm of three wells was defined as “low control” (n=3). This value reflects unspecific binding of radioactivity to the plate in the absence of a protein kinase but in the presence of the substrate. Additionally, for each kinase the median value of the cpm of three other wells was taken as the “high control,” i.e. full activity in the absence of any inhibitor (n=3). The difference between high and low control of each enzyme was taken as 100% activity.
(§3) As part of the data evaluation the low control of each kinase was subtracted from the high control value as well as from their corresponding “compound values”. The residual activity (in %) for each compound well was calculated by using the following formula: Res. Activity (%)=100×[(signal of compound−low control)/(high control−low control)].

[2] = molecular target: T2, TRKA (Homo sapiens, UniProt P04629); assay: PanQinase kinase panel: TRKA; type: biochemical
T2 construct: purchased Reaction Biology Europe GmbH
Procedure: as §1, §2, §3

[3] = molecular target: T3, PAK3 (Homo sapiens, UniProt O75914); assay: PanQinase kinase panel: PAK3; type: biochemical; conditions: read-out: INHIBITORY EFFECT @ 1 uM: PAK3
T3 construct: purchased Reaction Biology Europe GmbH
Procedure: as §1, §2, §3

[4] = molecular target: T4, MEKK3 (Homo sapiens, UniProt Q99759); assay: PanQinase kinase panel: MEKK3; type: biochemical; conditions: read-out: INHIBITORY EFFECT @ 1 uM: MEKK3
T4 construct: purchased Reaction Biology Europe GmbH
T4 sequence (Q99759 1-626): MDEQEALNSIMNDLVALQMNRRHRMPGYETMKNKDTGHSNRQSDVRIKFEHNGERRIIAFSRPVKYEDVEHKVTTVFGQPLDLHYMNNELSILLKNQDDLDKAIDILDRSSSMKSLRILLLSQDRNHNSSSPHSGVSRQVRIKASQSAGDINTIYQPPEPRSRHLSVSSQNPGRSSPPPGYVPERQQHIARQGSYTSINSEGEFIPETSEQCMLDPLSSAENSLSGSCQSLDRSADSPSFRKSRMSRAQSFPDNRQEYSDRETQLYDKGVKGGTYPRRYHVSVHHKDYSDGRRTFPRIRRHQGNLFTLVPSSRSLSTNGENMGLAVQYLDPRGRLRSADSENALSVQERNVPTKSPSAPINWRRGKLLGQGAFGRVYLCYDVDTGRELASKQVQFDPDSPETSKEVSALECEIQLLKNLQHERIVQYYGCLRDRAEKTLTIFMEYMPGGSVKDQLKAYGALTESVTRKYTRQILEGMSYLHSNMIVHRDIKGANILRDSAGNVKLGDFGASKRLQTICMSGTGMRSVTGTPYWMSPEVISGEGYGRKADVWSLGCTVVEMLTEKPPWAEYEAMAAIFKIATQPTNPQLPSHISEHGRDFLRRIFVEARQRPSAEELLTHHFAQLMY
Procedure: as §1, §2, §3

[5] = molecular target: T5, FES (Homo sapiens, UniProt P07332); assay: PanQinase kinase panel: FES; type: biochemical; conditions: read-out: INHIBITORY EFFECT @ 1 uM: FES
T5 construct: purchased Reaction Biology Europe GmbH
Procedure: as §1, §2, §3

[6] = molecular target: CXCR4 (Homo sapiens, UniProt P61073); assay: Chemokine (CXCL12-AF647) binding inhibition assay, Jurkat cells expressing CXCR4; conditions: CXCL12-AF647 25 ng/ml, read-out: IC50 CXCL-12 binding Jurkat
Procedure: Jurkat cells expressing CXCR4 were washed once with assay buffer (Hanks' balanced salt solution with 20 mM HEPES buffer and 0.2% bovine serum albumin, pH 7.4) and then incubated for 15 min at room temperature with the test compounds diluted in assay buffer at dose-dependent concentrations. Subsequently, CXCL12-AF647 (25 ng/ml) was added to the compound-incubated cells. The cells were incubated for 30 min at room temperature. Thereafter, the cells were washed twice in assay buffer, fixed in 1% paraformaldehyde in PBS, and analyzed on the FL4 channel of a FACSCalibur flow cytometer equipped with a 635-nm red diode laser (Becton Dickinson, San Jose, CA, USA).
The percentages of inhibition of CXCL12-AF647 binding were calculated according to the formula: [1−((MFI−MFINC)/(MFIPC−MFINC))]×100 where MFI is the mean fluorescence intensity of the cells incubated with CXCL 12-AF647 in the presence of the inhibitor, MFINC is the mean fluorescence intensity measured in the negative control (i.e., autofluorescence of unlabeled cells), and MFIPC is the mean fluorescence intensity of the positive control (i.e., cells exposed to CXCL12-AF647 alone).

[7] = read-out: INHIBITORY EFFECT @ 1 uM: TRKA
[8] = at 1 μM, read-out: inhibition of TRKA

T3 sequence (O75914 whole entry): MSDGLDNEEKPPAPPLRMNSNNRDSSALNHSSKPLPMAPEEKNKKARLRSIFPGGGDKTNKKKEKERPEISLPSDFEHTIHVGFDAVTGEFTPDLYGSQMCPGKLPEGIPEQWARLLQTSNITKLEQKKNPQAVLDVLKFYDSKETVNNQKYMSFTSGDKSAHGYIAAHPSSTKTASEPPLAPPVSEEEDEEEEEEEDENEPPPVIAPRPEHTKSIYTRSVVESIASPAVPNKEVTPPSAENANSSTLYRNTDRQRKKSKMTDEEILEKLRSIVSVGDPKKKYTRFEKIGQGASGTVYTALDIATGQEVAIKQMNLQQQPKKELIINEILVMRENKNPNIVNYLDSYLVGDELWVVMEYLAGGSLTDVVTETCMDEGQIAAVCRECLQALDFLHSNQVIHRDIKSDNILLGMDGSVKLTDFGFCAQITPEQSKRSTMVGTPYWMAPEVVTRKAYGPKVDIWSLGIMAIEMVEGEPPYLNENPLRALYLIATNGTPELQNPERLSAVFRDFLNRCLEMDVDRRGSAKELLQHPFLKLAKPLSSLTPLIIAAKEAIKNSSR
T2 sequence (P04629 33-796): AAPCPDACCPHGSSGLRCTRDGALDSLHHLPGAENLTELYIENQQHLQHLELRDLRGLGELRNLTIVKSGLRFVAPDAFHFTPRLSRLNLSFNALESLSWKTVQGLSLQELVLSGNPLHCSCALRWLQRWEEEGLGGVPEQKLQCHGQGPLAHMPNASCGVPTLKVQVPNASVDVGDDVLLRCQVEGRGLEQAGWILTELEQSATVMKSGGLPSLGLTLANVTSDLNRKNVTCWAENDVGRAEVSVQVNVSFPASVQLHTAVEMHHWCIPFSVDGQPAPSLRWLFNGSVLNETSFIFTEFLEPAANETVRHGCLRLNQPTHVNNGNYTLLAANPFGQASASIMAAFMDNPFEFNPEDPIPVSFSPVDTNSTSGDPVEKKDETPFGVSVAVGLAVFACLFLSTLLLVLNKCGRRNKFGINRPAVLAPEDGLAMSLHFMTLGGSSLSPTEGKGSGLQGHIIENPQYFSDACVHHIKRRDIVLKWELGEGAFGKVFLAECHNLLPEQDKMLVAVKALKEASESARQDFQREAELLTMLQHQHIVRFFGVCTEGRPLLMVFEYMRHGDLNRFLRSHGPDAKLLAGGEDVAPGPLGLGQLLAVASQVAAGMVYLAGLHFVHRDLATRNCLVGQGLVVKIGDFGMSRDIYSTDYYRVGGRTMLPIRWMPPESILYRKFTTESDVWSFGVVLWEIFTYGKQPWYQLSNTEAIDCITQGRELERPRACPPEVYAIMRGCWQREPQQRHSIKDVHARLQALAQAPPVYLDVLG
Chain of CXCR4 (P61073 whole entry): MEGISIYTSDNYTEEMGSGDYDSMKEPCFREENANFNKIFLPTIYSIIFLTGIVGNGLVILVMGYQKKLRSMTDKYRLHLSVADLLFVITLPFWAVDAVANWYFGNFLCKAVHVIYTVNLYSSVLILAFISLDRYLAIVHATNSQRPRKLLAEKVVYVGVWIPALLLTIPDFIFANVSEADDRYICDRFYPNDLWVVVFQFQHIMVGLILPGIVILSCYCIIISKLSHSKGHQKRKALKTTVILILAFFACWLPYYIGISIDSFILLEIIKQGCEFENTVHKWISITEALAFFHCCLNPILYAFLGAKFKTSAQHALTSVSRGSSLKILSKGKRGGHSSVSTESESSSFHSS
T5 sequence (P07332 whole entry): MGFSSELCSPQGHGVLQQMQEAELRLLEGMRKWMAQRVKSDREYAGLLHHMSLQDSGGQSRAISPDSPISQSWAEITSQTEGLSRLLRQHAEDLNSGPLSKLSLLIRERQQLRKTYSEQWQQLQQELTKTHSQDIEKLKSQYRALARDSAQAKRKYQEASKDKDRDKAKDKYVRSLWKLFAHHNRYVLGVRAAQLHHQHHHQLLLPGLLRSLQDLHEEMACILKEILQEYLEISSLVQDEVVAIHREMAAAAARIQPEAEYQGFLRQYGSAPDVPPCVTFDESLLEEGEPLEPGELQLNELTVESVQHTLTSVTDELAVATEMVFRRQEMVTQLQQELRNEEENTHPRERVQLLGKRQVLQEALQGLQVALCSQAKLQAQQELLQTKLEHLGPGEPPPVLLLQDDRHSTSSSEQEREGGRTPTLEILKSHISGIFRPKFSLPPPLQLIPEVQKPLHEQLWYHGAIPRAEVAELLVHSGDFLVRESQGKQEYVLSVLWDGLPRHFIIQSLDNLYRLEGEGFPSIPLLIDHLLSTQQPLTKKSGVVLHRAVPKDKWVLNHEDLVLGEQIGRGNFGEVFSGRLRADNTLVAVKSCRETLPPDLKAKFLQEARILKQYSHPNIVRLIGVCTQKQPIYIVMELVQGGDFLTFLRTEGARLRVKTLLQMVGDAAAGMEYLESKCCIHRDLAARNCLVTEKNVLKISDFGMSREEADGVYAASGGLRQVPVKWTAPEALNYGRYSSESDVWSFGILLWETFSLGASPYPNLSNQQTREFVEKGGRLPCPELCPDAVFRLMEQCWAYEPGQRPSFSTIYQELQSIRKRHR

Structure (SMILES)	inhibition at 1 µM [1] [%]	inhibition at 1 µM [2, 7] [%]	inhibition at 1 µM [3] [%]	inhibition at 1 µM [4] [%]	inhibition at 1 µM [5] [%]	inhibition at 1 µM [2, 8] [%]	pIC50 [6]
COc1ccc(F)cc1C(=O)NCc1ccc(-c2nn([C@@H](C)C(F)(F)F)c(N)c2C(N)=O)cc1 [LOXO-305, pirtobrutinib]	< 50	< 50	< 50	< 50	< 50	–	–
C=CC(=O)N1CCC([C@@H]2CCNc3c(C(N)=O)c(-c4ccc(Oc5ccccc5)cc4)nn32)CC1 [Zanubrutinib, (7S)-2-(4-phenoxyphenyl)-7-(1-prop-2-enoylpiperidin-4-yl)-4,5,6,7-tetrahydropyrazolo[1,5-a]pyrimidine-3-carboxamide]	< 50	< 50	< 50	< 50	< 50	–	–
O=C(c1ccc(Oc2ccccc2)cc1Cl)c1c[nH]c2ncnc(N[C@@H]3CC[C@@H](CO)OC3)c12 [ARQ-531, (2-chloro-4-phenoxyphenyl) (4-(((3R,6S)-6-(hydroxymethyl)tetrahydro-2H-pyran-3-yl)amino)-7H-pyrrolo[2,3-d]pyrimidin-5-yl) methanone]	70 to 89	90 to 100	90 to 100	50 to 69	50 to 69	≥ 50	–
Cc1cccnc1[C@H]1CCC[C@@H](c2ncccc2C)N1CCN1CCN(C(=O)c2ccc(-c3cc4c(-c5cccc(NC(=O)c6ccccc6)c5C)ncnc4[nH]3)cc2)CC1 [Compound I-10, N-(3-(6-(4-(4-(2-((2R,6S)-2,6-bis(3-methylpyridin-2-yl)piperidin-1-yl)ethyl)piperazine-1-carbonyl)phenyl)-7H-pyrrolo[2,3-d]pyrimidin-4-yl)-2-methylphenyl)benzamide]	< 50	70 to 89	< 50	< 50	< 50	50 to 89	7.00 to 9.00
Cc1cccnc1[C@H]1CCC[C@@H](c2ncccc2C)N1CCCCNC(=O)OC[C@@H]1CC[C@@H](Nc2ncnc3[nH]cc(C(=O)c4ccc(Oc5ccccc5)cc4Cl)c23)CO1 [Compound I-18]	–	–	–	–	–	–	6.00 to 7.00
Cc1cc(-c2ccnc(Nc3cnn(CCN4[C@@H](c5ncccc5C)CCC[C@H]4c4ncccc4C)c3)n2)ccc1CNC(=O)N1CC(OC(C)C)C1 [Compound I-11]	–	–	–	–	–	–	7.00 to 9.00
Cc1cccnc1[C@H]1CCC[C@@H](c2ncccc2C)N1CCCCNC(=O)[C@@H]1CC[C@@H](Nc2ncnc3[nH]cc(C(=O)c4ccc(Oc5ccccc5)cc4Cl)c23)CO1 [Compound I-16]	–	–	–	–	–	–	7.00 to 9.00
